Assay results published in publication PMC7256847 (Polish Journal of Microbiology, 2019).
Like-named read-outs stand apart in the source and are kept apart here. One block for each molecule: values may come before it.

Experiments:
alanine racemase (SiAlr) [1] = target: T1, alanine racemase (SiAlr) (Streptococcus iniae, UniProt A0A3L8GG59); assay: enzyme inhibition assay with purified recombinant SiAlr; type: biochemical
T1 sequence (A0A3L8GG59 1-368): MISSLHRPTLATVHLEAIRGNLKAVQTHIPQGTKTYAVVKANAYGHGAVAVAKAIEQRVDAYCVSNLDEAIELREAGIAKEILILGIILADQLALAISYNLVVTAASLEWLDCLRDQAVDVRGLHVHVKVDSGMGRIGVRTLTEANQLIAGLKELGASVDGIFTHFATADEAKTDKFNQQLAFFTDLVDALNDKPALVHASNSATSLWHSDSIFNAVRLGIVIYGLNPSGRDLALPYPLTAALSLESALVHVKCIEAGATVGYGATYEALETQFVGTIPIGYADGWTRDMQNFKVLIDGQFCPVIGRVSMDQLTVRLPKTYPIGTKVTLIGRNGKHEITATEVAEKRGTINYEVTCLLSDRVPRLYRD

alanine racemase (SiAlr) [2] = target: T1, alanine racemase (SiAlr); assay: as above; type: biochemical; remark: listed apart in the source
[3] = substrate: C[C@H](N)C(=O)O; assay: HPLC racemization kinetics; type: biochemical, Streptococcus iniae; conditions: pyridoxal […]'-phosphate (PLP)
[4] = substrate: C[C@@H](N)C(=O)O; assay: HPLC racemization kinetics; type: biochemical, Streptococcus iniae; conditions: pyridoxal […]'-phosphate (PLP)

IC50 (alanine racemase (SiAlr) [1]): 3.69 µM
Molecule: N[C@@H]1CON=C1O [D-cycloserine]

IC50 (alanine racemase (SiAlr) [2]): 12.3 µM
Molecule: O=C(O)Cc1cc(O)ccc1O [homogentisic acid]

IC50 (alanine racemase (SiAlr) [2]): 11.4 µM
Molecule: Oc1ccc(O)cc1 [hydroquinone]

B1: alanine racemase (SiAlr) (Streptococcus iniae) (protein)
chain: MISSLHRPTLATVHLEAIRGNLKAVQTHIPQGTKTYAVVKANAYGHGAVAVAKAIEQRVDAYCVSNLDEAIELREAGIAKEILILGIILADQLALAISYNLVVTAASLEWLDCLRDQAVDVRGLHVHVKVDSGMGRIGVRTLTEANQLIAGLKELGASVDGIFTHFATADEAKTDKFNQQLAFFTDLVDALNDKPALVHASNSATSLWHSDSIFNAVRLGIVIYGLNPSGRDLALPYPLTAALSLESALVHVKCIEAGATVGYGATYEALETQFVGTIPIGYADGWTRDMQNFKVLIDGQFCPVIGRVSMDQLTVRLPKTYPIGTKVTLIGRNGKHEITATEVAEKRGTINYEVTCLLSDRVPRLYRD
Km [3]: 33.11 mM
Km [4]: 14.36 mM
